Results published in patent US12528801B2 (Givaudan SA, priority 2019, dated 2026).

target: T1, hTRPM8 (Homo sapiens, UniProt Q7Z2W7); assay: Assay on TRPM8 modulators: calcium imaging (Fluo-4, Flexstation) in HEK293 cell line stably expressing hTRPM8; type: cell-based; conditions: HEK293 cells stably expressing hTRPM8; calcium influx, Fluo-4, Flexstation 3; sigmoidal dose-response fit
T1 construct: expressed in transfected cells
Summary of the method: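 HEK293 cells stably expressing hTRPM8 were loaded with Fluo-4 AM plus probenecid and kept in HEPES buffer, pH 7.4. Calcium influx to serially diluted compounds was recorded for 120 s. Maximal activation was referenced to solvent control and 31.6 μM menthol, with EC values from sigmoidal dose-response fits.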

T1 sequence (Q7Z2W7 whole entry): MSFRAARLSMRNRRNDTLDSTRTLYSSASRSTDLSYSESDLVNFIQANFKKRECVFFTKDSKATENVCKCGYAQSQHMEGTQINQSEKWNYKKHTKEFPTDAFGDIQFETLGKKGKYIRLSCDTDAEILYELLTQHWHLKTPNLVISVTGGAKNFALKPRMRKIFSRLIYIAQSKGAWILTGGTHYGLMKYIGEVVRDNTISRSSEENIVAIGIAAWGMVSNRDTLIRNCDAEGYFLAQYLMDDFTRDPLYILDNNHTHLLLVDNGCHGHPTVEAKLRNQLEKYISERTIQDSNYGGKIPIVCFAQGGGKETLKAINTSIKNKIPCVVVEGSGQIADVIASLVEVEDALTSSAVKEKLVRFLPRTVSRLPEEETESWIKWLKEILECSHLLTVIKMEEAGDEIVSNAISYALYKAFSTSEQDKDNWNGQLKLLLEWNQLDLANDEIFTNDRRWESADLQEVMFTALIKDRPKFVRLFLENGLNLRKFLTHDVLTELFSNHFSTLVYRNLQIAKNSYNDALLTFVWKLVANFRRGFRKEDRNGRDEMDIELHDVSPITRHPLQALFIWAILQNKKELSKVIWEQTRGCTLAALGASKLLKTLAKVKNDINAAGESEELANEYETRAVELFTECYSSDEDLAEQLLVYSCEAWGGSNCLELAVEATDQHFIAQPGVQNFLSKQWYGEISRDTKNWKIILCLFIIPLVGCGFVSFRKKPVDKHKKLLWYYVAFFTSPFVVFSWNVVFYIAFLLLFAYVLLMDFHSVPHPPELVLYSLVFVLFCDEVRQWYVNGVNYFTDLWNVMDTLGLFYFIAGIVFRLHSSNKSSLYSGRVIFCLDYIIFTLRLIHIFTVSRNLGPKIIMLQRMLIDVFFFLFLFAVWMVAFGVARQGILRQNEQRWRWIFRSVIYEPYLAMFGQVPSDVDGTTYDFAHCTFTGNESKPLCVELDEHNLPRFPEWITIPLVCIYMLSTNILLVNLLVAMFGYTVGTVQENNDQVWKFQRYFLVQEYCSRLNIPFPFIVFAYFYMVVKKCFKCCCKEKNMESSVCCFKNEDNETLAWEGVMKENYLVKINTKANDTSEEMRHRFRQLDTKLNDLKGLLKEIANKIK

Row | EC50 | Structure (SMILES)
1 | < 50 nM | Cc1ccc(-c2cnc(C3CCCCN3C(=O)C(C)(C)C(C)C)[nH]2)cc1 (stereo not drawn) [Compound 141, 2,2,3-trimethyl-1-(2-(5-(p-tolyl)-1H-imidazol-2-yl)piperidin-1-yl)butan-1-one]
2 | < 50 nM | C=CC(C)(C)C(=O)N1CCCCC1c1ncc(-c2ccc(C)cc2)[nH]1 (stereo not drawn) [Compound 142, 2,2-dimethyl-1-(2-(5-(p-tolyl)-1H-imidazol-2-yl)piperidin-1-yl)but-3-en-1-one]
3 | < 50 nM | CCC(C)(C)C(=O)N1CCCCC1c1ncc(-c2ccc(C)cc2)[nH]1 (stereo not drawn) [Compound 143, 2,2-dimethyl-1-(2-(5-(p-tolyl)-1H-imidazol-2-yl)piperidin-1-yl)butan-1-one]
4 | 1000 to 35000 nM | COCC(OC)C(=O)N1CCCCC1c1nc(-c2ccccc2)c[nH]1 (stereo not drawn) [Compound 144, 2,3-dimethoxy-1-(2-(4-phenyl-1H-imidazol-2-yl)piperidin-1-yl)propan-1-one]
5 | 50 to 300 nM | CC(C)C(C)C(=O)N1CCCCC1c1nc(-c2ccccc2)c[nH]1 (stereo not drawn) [Compound 145, 2,3-dimethyl-1-(2-(4-phenyl-1H-imidazol-2-yl)piperidin-1-yl)butan-1-one]
6 | < 50 nM | CSC(C)C(=O)N1CCCCC1c1nc(-c2cc(F)c(C#N)cc2F)c[nH]1 (stereo not drawn) [Compound 146, 2,5-difluoro-4-(2-(1-(2-(methylthio)propanoyl)piperidin-2-yl)-1H-imidazol-4-yl)benzonitrile]
7 | 1000 to 35000 nM | Cc1ccc(-c2cnc(C3CCCCN3C(=O)C(C)N)[nH]2)cc1 (stereo not drawn) [Compound 147, 2-amino-1-(2-(5-(p-toly)-1H-imidazol-2-yl)piperidin-1-yl)propan-1-one]
8 | 50 to 300 nM | CC(C(=O)N1CCCCC1c1nc(-c2ccccc2)c[nH]1)C1CCC1 (stereo not drawn) [Compound 148, 2-cyclobutyl-1-(2-(4-phenyl-1H-imidazol-2-yl)piperidin-1-yl)propan-1-one]
9 | 1000 to 35000 nM | CCOC(C(=O)N1CCCCC1c1nc(-c2ccccc2)c[nH]1)C1CCCC1 (stereo not drawn) [Compound 149, 2-cyclopentyl-2-ethoxy-1-(2-(4-phenyl-1H-imidazol-2-yl)piperidin-1-yl)ethan-1-one]
10 | 1000 to 35000 nM | O=C(CC1CC1)N1CCCCC1c1nc(-c2ccccc2)c[nH]1 (stereo not drawn) [Compound 150, 2-cyclopropyl-1-(2-(4-phenyl-1H-imidazol-2-yl)piperidin-1-yl)ethan-1-one]
11 | 50 to 300 nM | CC(C(=O)N1CCCCC1c1nc(-c2ccccc2)c[nH]1)C1CC1 (stereo not drawn) [Compound 151, 2-cyclopropyl-1-(2-(4-phenyl-1H-imidazol-2-yl)piperidin-1-yl)propan-1-one]
12 | 300 to 1000 nM | COC(C(=O)N1CCCCC1c1nc(-c2ccccc2)c[nH]1)C1CC1 (stereo not drawn) [Compound 152, 2-cyclopropyl-2-methoxy-1-(2-(4-phenyl-1H-imidazol-2-yl)piperidin-1-yl)ethan-1-one]
13 | 1000 to 35000 nM | CCOC(C)C(=O)N1CCCCC1c1ncc(-c2cccc(F)c2)[nH]1 (stereo not drawn) [Compound 153, 2-ethoxy-1-(2-(5-(3-fluorophenyl)-1H-imidazol-2-yl)piperidin-1-yl)propan-1-one]
14 | 50 to 300 nM | CC=C(CC)C(=O)N1CCCCC1c1nc(-c2ccccc2)c[nH]1 (stereo not drawn) [Compound 154, 2-ethyl-1-(2-(4-phenyl-1H-imidazol-2-yl)piperidin-1-yl)but-2-en-1-one]
15 | 50 to 300 nM | CCC(CC)C(=O)N1CCCCC1c1nc(-c2ccccc2)c[nH]1 (stereo not drawn) [Compound 155, 2-ethyl-1-(2-(4-phenyl-1H-imidazol-2-yl)piperidin-1-yl)butan-1-one]
16 | < 50 nM | CSC(C)C(=O)N1CCCCC1c1ncc(-c2ccc(C#N)c(F)c2)[nH]1 (stereo not drawn) [Compound 156, 2-fluoro-4-(2-(1-(2-(methylthio)propanoyl)piperidin-2-yl)-1H-imidazol-5-yl)benzonitrile]
17 | 50 to 300 nM | Cc1ccc(-c2cnc(C3CCCCN3C(=O)C(C)S)[nH]2)cc1 (stereo not drawn) [Compound 157, 2-mercapto-1-(2-(5-(p-tolyl)-1H-imidazol-2-yl)piperidin-1-yl)propan-1-one]
18 | 300 to 1000 nM | CCC(OC)C(=O)N1CCCCC1c1nc(-c2ccccc2)c[nH]1 (stereo not drawn) [Compound 158, 2-methoxy-1-(2-(4-phenyl-1H-imidazol-2-yl)piperidin-1-yl)butan-1-one]
